In PMC10686834, “Targeting myeloid chemotaxis to reverse prostate cancer therapy resistance” (Nature, 2023):
Entries after “also recorded” stand apart in the source; their conditions may differ.

System: patients with ARSI-resistant mCRPC
Assay: Phase 1 trial of AZD5069 plus enzalutamide: safety and tolerability (DLTs, treatment-emergent adverse events, NCI-CTCAE v.4.0)
Assay type: in vivo
Text: The primary trial objective was to evaluate the safety and tolerability of the combination. Key secondary objectives were to evaluate pharmacokinetic–pharmacodynamic parameters and antitumour activity.
Eligible patients were consenting patients aged ≥18 years, who had mCRPC with histologically confirmed prostate adenocarcinoma histology, documented cancer progression at the time of trial entry by Response Evaluation Criteria in Solid Tumors (v.1.1) and/or Prostate Cancer Working Group 2 criteria, and PSA of ≥10 ng ml^−1 at screening.
The dose-escalation phase used a rule-based 3 + 3 design, with an initial three patients enrolled per dose level. If none of the first three patients experienced a DLT, dose escalation proceeded to the next dose level. […] If fewer than two of six patients at any dose level experienced a DLT, dose escalation continued to the next level. If at least two out of up to six patients experienced a DLT, dose escalation stopped and this dose level was defined as the maximum administered dose. Once this maximum administered dose was defined, the maximum tolerated dose (MTD) was confirmed at the dose level below the maximum administered dose. At least six evaluable patients were required to establish the MTD at a specific dose level. […] Intra-patient dose escalation was not permitted. Start of dosing between the first and second patient enrolled to each dose level was staggered by 1 week. Once the MTD was determined in the phase 1 study, the recommended phase 2 dose was determined on the basis of available data, including but not limited to safety and response.
DLTs were defined as described in the study protocol. […] Prophylaxis with growth factor support or antipyretics were not permitted. Investigators determined whether an adverse event was related to the study drugs. If a patient experienced clinically significant and/or unacceptable toxicity, including a DLT, not attributable to the disease or disease-related processes, dosing was interrupted or the dose was reduced and supportive therapy was administered as required.

For `C[C@@H](Oc1cc(NS(=O)(=O)N2CCC2)nc(SCc2cccc(F)c2F)n1)[C@@H](O)CO` [AZD5069], which “TEAE Anemia, All G” value (AZD5069 40 mg BD (n=3)) is on record?
The value was 1 (33) n (%).

What about the “TEAE Anemia, G≥3” value (AZD5069 40 mg BD (n=3)) of the same compound?
The value was 0 (0) n (%).

And the “TEAE Aphasia, All G” value (AZD5069 40 mg BD (n=3))?
Its value is 0 (0) n (%).

And the “TEAE Aphasia, G≥3” value (AZD5069 40 mg BD (n=3))?
Its value is 0 (0) n (%).

And the “TEAE Arthralgia, All G” value (AZD5069 40 mg BD (n=3))?
The value was 0 (0) n (%).

And the “TEAE Arthralgia, G≥3” value (AZD5069 40 mg BD (n=3))?
Its value is 0 (0) n (%).

What about the “TEAE Aspartate aminotransferase increased, All G” value (AZD5069 40 mg BD (n=3)) of the same compound?
The value was 0 (0) n (%).

What about the “TEAE Aspartate aminotransferase increased, G≥3” value (AZD5069 40 mg BD (n=3)) of the same compound?
Its value is 0 (0) n (%).

And the “TEAE Constipation, All G” value (AZD5069 40 mg BD (n=3))?
The value was 0 (0) n (%).

What about the “TEAE Constipation, G≥3” value (AZD5069 40 mg BD (n=3)) of the same compound?
Its value is 0 (0) n (%).

What about the “TEAE Death, All G” value (AZD5069 40 mg BD (n=3)) of the same compound?
The value was 0 (0) n (%).

And the “TEAE Death, G≥3” value (AZD5069 40 mg BD (n=3))?
Its value is 0 (0) n (%).

What about the “TEAE Decreased appetite, All G” value (AZD5069 40 mg BD (n=3)) of the same compound?
The value was 0 (0) n (%).

What about the “TEAE Decreased appetite, G≥3” value (AZD5069 40 mg BD (n=3)) of the same compound?
Its value is 0 (0) n (%).

What about the “TEAE Diarrhoea, All G” value (AZD5069 40 mg BD (n=3)) of the same compound?
The value was 0 (0) n (%).

What about the “TEAE Diarrhoea, G≥3” value (AZD5069 40 mg BD (n=3)) of the same compound?
Its value is 0 (0) n (%).

What about the “TEAE Dry skin, All G” value (AZD5069 40 mg BD (n=3)) of the same compound?
The value was 0 (0) n (%).

What about the “TEAE Dry skin, G≥3” value (AZD5069 40 mg BD (n=3)) of the same compound?
Its value is 0 (0) n (%).

And the “TEAE Fatigue, All G” value (AZD5069 40 mg BD (n=3))?
The value was 0 (0) n (%).

What about the “TEAE Fatigue, G≥3” value (AZD5069 40 mg BD (n=3)) of the same compound?
The value was 0 (0) n (%).

And the “TEAE Headache, All G” value (AZD5069 40 mg BD (n=3))?
The value was 0 (0) n (%).

And the “TEAE Headache, G≥3” value (AZD5069 40 mg BD (n=3))?
The value was 0 (0) n (%).

What about the “TEAE Hypophosphataemia, All G” value (AZD5069 40 mg BD (n=3)) of the same compound?
Its value is 0 (0) n (%).

And the “TEAE Hypophosphataemia, G≥3” value (AZD5069 40 mg BD (n=3))?
The value was 0 (0) n (%).

What about the “TEAE Nausea, All G” value (AZD5069 40 mg BD (n=3)) of the same compound?
Its value is 1 (33) n (%).

What about the “TEAE Nausea, G≥3” value (AZD5069 40 mg BD (n=3)) of the same compound?
The value was 0 (0) n (%).

What about the “TEAE Neutrophil decreased, All G” value (AZD5069 40 mg BD (n=3)) of the same compound?
Its value is 2 (67) n (%).

And the “TEAE Neutrophil decreased, G≥3” value (AZD5069 40 mg BD (n=3))?
Its value is 0 (0) n (%).

What about the “TEAE Oedema genital, All G” value (AZD5069 40 mg BD (n=3)) of the same compound?
The value was 0 (0) n (%).

What about the “TEAE Oedema genital, G≥3” value (AZD5069 40 mg BD (n=3)) of the same compound?
Its value is 0 (0) n (%).

And the “TEAE Platelet decreased, All G” value (AZD5069 40 mg BD (n=3))?
Its value is 0 (0) n (%).

What about the “TEAE Platelet decreased, G≥3” value (AZD5069 40 mg BD (n=3)) of the same compound?
Its value is 0 (0) n (%).

And the “TEAE Pruritus, All G” value (AZD5069 40 mg BD (n=3))?
Its value is 1 (33) n (%).

What about the “TEAE Pruritus, G≥3” value (AZD5069 40 mg BD (n=3)) of the same compound?
The value was 0 (0) n (%).

And the “TEAE Skin infection, All G” value (AZD5069 40 mg BD (n=3))?
Its value is 0 (0) n (%).

What about the “TEAE Skin infection, G≥3” value (AZD5069 40 mg BD (n=3)) of the same compound?
The value was 0 (0) n (%).

What about the “TEAE Vomiting, All G” value (AZD5069 40 mg BD (n=3)) of the same compound?
Its value is 1 (33) n (%).

What about the “TEAE Vomiting, G≥3” value (AZD5069 40 mg BD (n=3)) of the same compound?
The value was 0 (0) n (%).

What about the “TEAE White blood cell decreased, All G” value (AZD5069 40 mg BD (n=3)) of the same compound?
Its value is 0 (0) n (%).

And the “TEAE White blood cell decreased, G≥3” value (AZD5069 40 mg BD (n=3))?
Its value is 0 (0) n (%).

What about the “dose-limiting toxicity (DLT)” value (AZD5069 40 mg BD to 320 mg BD plus enzalutamide 160 mg OD, 21 patients evaluable for DLTs) of the same compound?
Its value is “did not observe any DLT; also recorded: without dose-limiting toxicity”.

What about the “TEAE Anemia, All G” value (AZD5069 80 mg BD (n=4)) of the same compound?
Its value is 0 (0) n (%).

What about the “TEAE Anemia, G≥3” value (AZD5069 80 mg BD (n=4)) of the same compound?
Its value is 0 (0) n (%).

What about the “TEAE Aphasia, All G” value (AZD5069 80 mg BD (n=4)) of the same compound?
The value was 0 (0) n (%).

And the “TEAE Aphasia, G≥3” value (AZD5069 80 mg BD (n=4))?
Its value is 0 (0) n (%).

What about the “TEAE Arthralgia, All G” value (AZD5069 80 mg BD (n=4)) of the same compound?
Its value is 0 (0) n (%).

What about the “TEAE Arthralgia, G≥3” value (AZD5069 80 mg BD (n=4)) of the same compound?
The value was 0 (0) n (%).

And the “TEAE Aspartate aminotransferase increased, All G” value (AZD5069 80 mg BD (n=4))?
Its value is 0 (0) n (%).

And the “TEAE Aspartate aminotransferase increased, G≥3” value (AZD5069 80 mg BD (n=4))?
Its value is 0 (0) n (%).

And the “TEAE Constipation, All G” value (AZD5069 80 mg BD (n=4))?
The value was 0 (0) n (%).

And the “TEAE Constipation, G≥3” value (AZD5069 80 mg BD (n=4))?
Its value is 0 (0) n (%).

And the “TEAE Death, All G” value (AZD5069 80 mg BD (n=4))?
The value was 0 (0) n (%).

What about the “TEAE Death, G≥3” value (AZD5069 80 mg BD (n=4)) of the same compound?
Its value is 0 (0) n (%).

And the “TEAE Decreased appetite, All G” value (AZD5069 80 mg BD (n=4))?
The value was 0 (0) n (%).

And the “TEAE Decreased appetite, G≥3” value (AZD5069 80 mg BD (n=4))?
The value was 0 (0) n (%).

What about the “TEAE Diarrhoea, All G” value (AZD5069 80 mg BD (n=4)) of the same compound?
Its value is 0 (0) n (%).

What about the “TEAE Diarrhoea, G≥3” value (AZD5069 80 mg BD (n=4)) of the same compound?
Its value is 0 (0) n (%).

What about the “TEAE Dry skin, All G” value (AZD5069 80 mg BD (n=4)) of the same compound?
The value was 0 (0) n (%).

What about the “TEAE Dry skin, G≥3” value (AZD5069 80 mg BD (n=4)) of the same compound?
The value was 0 (0) n (%).

What about the “TEAE Fatigue, All G” value (AZD5069 80 mg BD (n=4)) of the same compound?
The value was 1 (25) n (%).

What about the “TEAE Fatigue, G≥3” value (AZD5069 80 mg BD (n=4)) of the same compound?
The value was 0 (0) n (%).

And the “TEAE Headache, All G” value (AZD5069 80 mg BD (n=4))?
The value was 0 (0) n (%).

And the “TEAE Headache, G≥3” value (AZD5069 80 mg BD (n=4))?
Its value is 0 (0) n (%).
